Reference: US10772847B1, “Combinational fendiline formulations and uses thereof” (UNIVERSITY OF SOUTH FLORIDA, priority 2016, dated 2020)

Columns and labels:
ADAM10 = conditions: shown recently (introduction); cited from earlier work
P-Aurora ABC = assay: Fluorescent microscopy of p-Aurora ABC in CD18 cells; format: cell-based; conditions: about 24 hours of treatment, FIGS. 26A-26C
Protocol: FIGS. 26A-26C show fluorescent microscopic images of CD18 cells treated with fendiline or Tivantinib as compared to untreated after about 24 hours of treatment and staining with antibodies against p-Aurora ABC or a-tubulin and counterstained with Hoechst.

cancer cells = conditions: shown earlier (introduction); cited from earlier work

CC(NCCC(c1ccccc1)c1ccccc1)c1ccccc1 (stereo not drawn) [fendiline]
ADAM10 inhibition (ADAM10): inhibits | aurora ABC phosphorylation (P-Aurora ABC): inhibit | cytotoxicity in cancer cells (cancer cells): induces cytotoxicity
